Consider 17 molecules from patent publication EP2608671B1, “COMPOUNDS FOR TREATMENT OF CANCER” (Gtx, Inc., priority 2010, dated 2012).

In experiment [1] the test system is melanoma cell lines (A375, WM-164, B16-F1) and prostate cancer cell lines (LNCaP, DU 145, PC-3, PPC-1). Description: SRB cytotoxicity, melanoma and prostate cell panel (averages). In kind it is cell-based. The note with it: Table 2; read-out: IC50 range over tested melanoma and prostate cell lines. The text has this:
(§1) The only compounds which belong to the invention are the ones falling under the scope of formula (XI).

Experiment [2] has as its system A375. Put plainly: SRB cell growth inhibition (cytotoxicity) assay. The conditions noted are these: Homo sapiens. In kind it is cell-based, human.
In experiment [3] the test system is PPC-1. Description: cells. The note with it: Homo sapiens.
Experiment [4] has as its system WM-164. Description: SRB cell growth inhibition (cytotoxicity) assay. Type of experiment: cell-based, human. The conditions noted are these: Homo sapiens.
Experiment [5] relates to PC-3. Description: cells. The note with it: Homo sapiens.
Text: as §1
Cells were stained with SRB solution.
Cells. […] Cells between the third and fifth passages were used for experiments.
Cell growth inhibition studies. […] Cells were stained with sulphorhodamine B (SRB) solution.

Experiment [6] concerns DU 145. Put plainly: cells. The conditions noted are these: Homo sapiens.
The test system of experiment [7] is LNCaP. Put plainly: cells. The note with it: Homo sapiens.
The test system of experiment [8] is B16-F1. Description: SRB cell growth inhibition (cytotoxicity) assay. The conditions noted are these: Mus musculus. In kind it is cell-based, mouse.
Text: as §1

Setting [9] is: A-375, SRB, 48 h, Table 11, read-out: IC50 (nM), A375.
The mark [10] stands for this setting: PPC-1, 96 h, read-out: IC50 (nM), PPC-1.
The mark [11] stands for this setting: WM164, SRB, 48 h, Tables 11, 12, read-out: IC50 (nM), WM164.
[12] abbreviates: PC-3, 96 h, read-out: IC50 (nM), PC-3.
The mark [13] stands for this setting: DU-145, 96 h, read-out: IC50 (nM), Du 145.
The mark [14] stands for this setting: 96 h, read-out: IC50 (nM), LNCaP.
Where [15] appears, read: B16-F1, SRB, 48 h, Table 11, read-out: IC50 (nM), B16-F1.
Where [16] appears, read: A-375, A375 melanoma cells, 48 h, SRB, read-out: IC50 ± SEM (nM) A375.
Setting [17] is: PPC-1, 96 h, read-out: IC50 ± SEM (nM), PPC-1.
The mark [18] stands for this setting: WM164 melanoma cells, 48 h, SRB, read-out: IC50 ± SEM (nM) WM164.
Setting [19] is: PC-3, 96 h, read-out: IC50 ± SEM (nM), PC-3.
Where [20] appears, read: DU-145, 96 h, read-out: IC50 ± SEM (nM) Du 145.
The mark [21] stands for this setting: 96 h, read-out: IC50 ± SEM (nM), LNCaP.
Setting [22] is: B16-F1 melanoma cells, 48 h, SRB, read-out: IC50 ± SEM (nM) B16-F1.
[23] abbreviates: A-375, read-out: IC50 (nM), A375.
Where [24] appears, read: PPC-1, read-out: IC50 (nM), PPC-1.
Setting [25] is: WM164, read-out: IC50 (nM), WM164.
Where [26] appears, read: PC-3, read-out: IC50 (nM), PC-3.
Where [27] appears, read: DU-145, read-out: IC50 (nM), DU 145.
The mark [28] stands for this setting: B16-F1, read-out: IC50 (nM), B16-F1.
[29] abbreviates: A-375, Table 6A, read-out: IC50 (nM), A375.
[30] abbreviates: WM164, Table 6A, read-out: IC50 (nM), WM164.
The mark [31] stands for this setting: B16-F1, Table 6A, read-out: IC50 (nM), B16-F1.

Structures are written as SMILES. Where two headings read alike, the source gives them in different places. Some results are limits rather than exact numbers.

Take `COc1cc(C(=NN)c2csc(-c3ccccc3)n2)cc(OC)c1OC` (mixture of isomers) [2d]: the IC50 – broadly, the point on the concentration scale where inhibition reaches its midpoint – in experiment [1] is about 1000 nM.
For `COc1cccc(C(=O)c2c[nH]c(-c3ccccc3)n2)c1` [12ac, (3-methoxyphenyl)(2-phenyl-1H-imidazol-4-yl)methanone], the IC50 in experiment [2] (setting [9]), in experiment [3] (setting [10]), in experiment [4] (setting [11]), in experiment [5] (setting [12]), in experiment [6] (setting [13]) and in experiment [7] (setting [14]) was over 10000 nM each time. In addition, the IC50 in experiment [8] (setting [15]) is over 10000 nM.
For the molecule `COc1cc(OC)cc(C(=O)c2c[nH]c(-c3ccccc3)n2)c1` [12ad, (3,5-dimethoxyphenyl)(2-phenyl-1 H-imidazol-4-yl)methanone], the IC50 in experiment [2] (setting [9]) stood at 2800 nM; in experiment [3] (setting [10]) it was 2130 nM; in experiment [4] (setting [11]), 2100 nM; in experiment [5] (setting [12]) it was 3270 nM; in experiment [6] (setting [13]), 2590 nM; in experiment [7] (setting [14]) it was 3610 nM. For the same molecule, the IC50 in experiment [8] (setting [15]) worked out at 5400 nM.
In the case of `O=C(c1ccc(F)cc1)c1c[nH]c(-c2ccccc2)n1` [12af, (4-fluorophenyl)(2-phenyl-1H-imidazol-4-yl)methanone], the IC50 in experiment [2] (setting [9]) came out at 580 nM; in experiment [3] (setting [10]) it was 575 nM; in experiment [4] (setting [11]), 630 nM; in experiment [5] (setting [12]) it was 2200 nM; in experiment [6] (setting [13]) it was 846 nM; in experiment [7] (setting [14]), 613 nM. In experiment [8] (setting [15]), the IC50 was 930 nM.
Consider `Cc1ccc(C(=O)c2c[nH]c(-c3ccccc3)n2)cc1` [12ah, (2-phenyl-1H-imidazol-4-yl)(p-tolyl)methanone], for which the IC50 in experiment [2] (setting [9]), in experiment [3] (setting [10]), in experiment [4] (setting [11]), in experiment [5] (setting [12]), in experiment [6] (setting [13]) and in experiment [7] (setting [14]) was over 10000 nM in each case. For the same molecule, in experiment [8] (setting [15]), the concentration for half-maximal inhibition (IC50) is over 10000 nM.
In the case of `Cc1cccc(C(=O)c2c[nH]c(-c3ccccc3)n2)c1` [12ai, (2-phenyl-1H-imidazol-4-yl)(m-tolyl)methanone], the IC50 in experiment [2] (setting [9]), in experiment [3] (setting [10]), in experiment [4] (setting [11]), in experiment [5] (setting [12]), in experiment [6] (setting [13]) and in experiment [7] (setting [14]) was over 10000 nM each time. The IC50 in experiment [8] (setting [15]) was over 10000 nM.
Regarding `COc1ccc(-c2nc(C(=O)c3ccc(F)cc3)cn2C)cc1` [12cba, (4-fluorophenyl)(2-(4-methoxyphenyl)-1-methyl-1H-imidazol-4-yl)methanone], the IC50 in experiment [2] (setting [16]), in experiment [3] (setting [17]), in experiment [4] (setting [18]), in experiment [5] (setting [19]), in experiment [6] (setting [20]) and in experiment [7] (setting [21]) was over 10000 nM in each case. Also, the IC50 in experiment [8] (setting [22]) is over 10000 nM.
`COc1cc(C(=O)c2cn(C)c(-c3ccc(C)cc3)n2)cc(OC)c1OC` [12dab, (1-methyl-2-(p-tolyl)-1H-imidazol-4-yl)(3,4,5-trimethoxyphenyl)methanone]: the IC50 in experiment [2] (A-375, 48 h, read-out: IC50 ± SEM (nM) A375) amounted to 32 nM; in experiment [3] (setting [17]), 28 nM; in experiment [4] (WM164, 48 h, read-out: IC50 ± SEM (nM) WM164), 40 nM; in experiment [5] (setting [19]), 46 nM; in experiment [6] (setting [20]) it was 36 nM; in experiment [7] (setting [21]), 32 nM. Further, the IC50 in experiment [8] (B16-F1, 48 h, read-out: IC50 ± SEM (nM) B16-F1) turned out to be 134 nM.
As for `COc1cc(C(=O)c2c[nH]c(-c3ccc(C)cc3)n2)cc(OC)c1O` [12dc, (4-hydroxy-3,5-dimethoxyphenyl)(2-(p-tolyl)-1H-imidazol-4-yl)methanone], the IC50 in experiment [2] (setting [16]) was 105 nM; in experiment [3] (setting [17]) it was 110 nM; in experiment [4] (setting [18]), 123 nM; in experiment [5] (setting [19]) it was 127 nM; in experiment [6] (setting [20]), 174 nM; in experiment [7] (setting [21]), 134 nM. In addition, in experiment [8] (setting [22]), the IC50 was determined as 387 nM.
For `COc1ccc(S(=O)(=O)n2cc(C(=O)c3ccc(F)cc3)nc2-c2ccc(N(C)C)cc2)cc1` [12gba, (2-(4-(dimethylamino)phenyl)-1-((4-methoxyphenyl)sulfonyl)-1H-imidazol-4-yl)(4-fluorophenyl)methanone], the IC50 in experiment [2] (setting [16]) is about 100 nM; in experiment [3] (setting [17]) it was 63.4 nM; in experiment [4] (setting [18]), about 100 nM; in experiment [5] (setting [19]), 44.1 nM; in experiment [6] (setting [20]), 129 nM; in experiment [7] (setting [21]), 73.2 nM. The IC50 in experiment [8] (setting [22]) was about 100 nM.
Turning to `COc1cc(C(=O)c2c[nH]c(-c3ccc(Br)cc3)n2)cc(OC)c1OC` [12la, (2-(4-bromophenyl)-1H-imidazol-4-yl)(3,4,5-trimethoxyphenyl)methanone], the IC50 is 32 nM in experiment [2] (setting [16]); 33 nM in experiment [3] (setting [17]); 36 nM in experiment [4] (setting [18]); 36 nM in experiment [5] (setting [19]); 49 nM in experiment [6] (setting [20]); 34 nM in experiment [7] (setting [21]). Further, the IC50 in experiment [8] (setting [22]) was 74 nM.
On to `COc1cc(C(=O)c2c[nH]c(-c3ccc(C(F)(F)F)cc3)n2)cc(OC)c1OC` [12pa, (2-(4-(trifluoromethyl)phenyl)-1H-imidazol-4-yl)(3,4,5-trimethoxyphenyl)methanone], for which the IC50 in experiment [2] (setting [16]) is 163 nM; in experiment [3] (setting [17]), 110 nM; in experiment [4] (setting [18]) it was 175 nM; in experiment [5] (setting [19]), 127 nM; in experiment [6] (setting [20]), 174 nM; in experiment [7] (setting [21]), 134 nM. In addition, in experiment [8] (setting [22]), the IC50 is 469 nM.
`O=C(c1cc(O)c(O)c(O)c1)c1c[nH]c(-c2cc(O)c(O)c(O)c2)n1` [13ea, (3,4,5-trihydroxyphenyl)(2-(3,4,5-trihydroxyphenyl)-1H-imidazol-4-yl)methanone]: the IC50 in experiment [2] (setting [16]), in experiment [3] (setting [17]), in experiment [4] (setting [18]), in experiment [5] (setting [19]), in experiment [6] (setting [20]) and in experiment [7] (setting [21]) was over 10000 nM throughout. The IC50 in experiment [8] (setting [22]) was over 10000 nM.
Consider `COc1cc(C(=O)c2c[nH]c(-c3ccc4[nH]c(C(=O)c5cc(OC)c(OC)c(OC)c5)cc4c3)n2)cc(OC)c1OC` [15xaa, (5-(4-(3,4,5-Trimethoxybenzoyl)-1H-imidazol-2-yl)-1H-indol-2-yl)(3,4,5-trimethoxyphenyl)methanone], for which the IC50 in experiment [2] (setting [23]) amounted to 1800 nM; in experiment [3] (setting [24]), 4580 nM; in experiment [4] (setting [25]) it was 1700 nM; in experiment [5] (setting [26]), 2630 nM; in experiment [6] (setting [27]), 5920 nM; in experiment [7] (read-out: IC50 (nM), LNCaP) it was 1070 nM. Also, the IC50 in experiment [8] (setting [28]) was 1390 nM.
With `COc1cc(C(=O)c2cn(S(=O)(=O)c3ccccc3)c(-c3ccc4c(c3)cc(C(=O)c3cc(OC)c(OC)c(OC)c3)n4S(=O)(=O)c3ccccc3)n2)cc(OC)c1OC` [16xaa, (1-(Phenylsulfonyl)-2-(1-(phenylsulfonyl)-2-(3,4,5-trimethoxybenzoyl)-1H-indol-5-yl)-1H-imidazol-4-yl)(3,4,5-trimethoxyphenyl)methanone], the IC50 is over 10000 nM in experiment [2] (setting [23]); over 10000 nM in experiment [3] (setting [24]); over 10000 nM in experiment [4] (setting [25]); over 10000 nM in experiment [5] (setting [26]); over 10000 nM in experiment [6] (setting [27]); over 10000 nM in experiment [7] (read-out: IC50 (nM), LNCaP). Also, the IC50 in experiment [8] (setting [28]) was over 10000 nM.
As for `O=C(c1csc(-c2cc3ccccc3[nH]2)n1)c1cc2ccccc2[nH]1` [compound 8, (2-(1H-Indol-2-yl)thiazol-4-yl)(1H-indol-2-yl)methanone], the IC50 in experiment [2] (setting [29]) was 318 nM; in experiment [3] (setting [24]), 230 nM; in experiment [4] (setting [30]), 404 nM; in experiment [5] (setting [26]) it was 704 nM; in experiment [6] (setting [27]) it was 580 nM; in experiment [7] (read-out: IC50 (nM), LNCaP), 346 nM. Also, the IC50 in experiment [8] (setting [31]) was determined as 570 nM.
Turning to `COc1cc(C(=NC#N)c2csc(-c3ccccc3)n2)cc(OC)c1O` [compound 32, N-((4-hydroxy-3,5-dimethoxyphenyl)(2-phenylthiazol-4-yl)methylene)cyanamide], the IC50 was 2700 nM in experiment [2] (setting [29]); 1170 nM in experiment [3] (setting [24]); 2600 nM in experiment [4] (setting [30]); 2290 nM in experiment [5] (setting [26]); 4600 nM in experiment [6] (setting [27]); 1660 nM in experiment [7] (read-out: IC50 (nM), LNCaP). In addition, the IC50 in experiment [8] (setting [31]) is over 10000 nM.
